Test results published in patent US12402610B2, “Methods and compositions for modulating innate lymphoid cell pathogenic effectors” (The Broad Institute, Inc., priority 2018, dated 2025).
Entries after “also recorded” stand apart in the source; their conditions may differ.

Assays:
ear skin = experiment: IL-23 subcutaneous injection psoriasis model, skin thickness measured with calipers; format: in vivo, mouse
Text: (§1) To determine which cells are key to initiate psoriatic disease, Applicants studied a subcutaneous IL-23 injection model, which leads to increased skin thickness after five days of daily injections (FIG. 1a, FIG. 5a). First, Applicants assessed the role of different immune cell types in this model (FIG. 1b, FIG. 5b,c). […] This is also consistent with an increased number of human ILC3s recently observed in psoriatic patients^3,4. Moreover, while γδ T cells have been implicated in a longer treatment course^2,5, analyzing Tcrd^−/− mice, which lack only γδ T cells, Applicants found no evidence that they contribute to disease initiation (FIG. 1b). […] Applicants compared disease phenotype between control mice and those treated with FTY720, which blocks signaling from the S1P1 receptor, preventing egress of T cells from secondary lymphoid tissues and limiting trafficking of induced ILC2s^7,11. […] Thus, in contrast to a model of lung inflammation, in psoriasis, tissue-resident ILCs are sufficient to drive disease pathology and are critical for amplifying the response to IL-23.
(§2) Psoriasis model. The psoriasis model used in this study is based on rIL-23 subcutaneous injections. The 500 ng in 20 μl of rIL-23 (provided by Abbvie or purchased from R&D Systems [scRNAseq experiments]) was injected daily into the ear skin of anesthetized mice in 4 consecutive days. As a control 20 μl of PBS was used with the same injection intervals. For the second challenge experiment, Applicants waited 10 days, monitoring the skin thickness before repeating 4-day injection regimen. Skin thickness was measured daily with calipers. When indicated, FTY720 (1 mg/kg) was dissolved in PBS and administered i.p on day −1, 1 and 3 of the experiment. Skin tissue was collected on day 5 for histology imaging, flow cytometry analysis or cell sorting.

[1] = tested on: circulating total white blood cells; experiment: Total circulatory white blood cell numbers after FTY720 treatment; format: in vivo, mouse; details: FTY720 1 mg/kg i.p., WT and Rag1−/− mice, vs untreated
Text: as §1
Psoriasis model. The psoriasis model used in this study is based on rIL-23 subcutaneous injections. […] Skin thickness was measured daily with calipers. […]

skin ILCs [2] = experiment: Alternative psoriasis model using topical imiquimod in IL-5 fate / IL-22 BFP / IL-17A GFP reporter mouse; format: in vivo
skin ILCs [3] = experiment: IL-5 fate mapping with IL-17A GFP and IL-22 BFP reporters after IL-23 injection; format: in vivo, mouse
Text: (§3) Next, Applicants tested the prediction of a transition during disease of IL-5-expressing ILC2s into IL-22/IL-17A-expressing ILC3-like cells. Applicants generated an IL-5 fate reporter mouse from IL-5-cre-dTomato (Red5)^50 and Rosa26^flox-Stop-floxYFP, which Applicants then combined with IL-17A^GFP 51 and IL-22^BFP expression reporters (FIG. 4b). […] Moreover, cells that expressed ILC3 type cytokines no longer expressed IL-5 (FIG. 4d). […] Finally, Applicants also tested the model's prediction that there is a subset of skin ILCs in the psoriasis model that co-expresses the type 2 cytokine IL-13 with both of the type 3 cytokines IL-22 and IL-17A.
Mice. C57BL/6, Tcrd^−/− and Rosa26^flox-stop-floxYFP Ai3(RCL-EYFP) mice were purchased from the Jackson Laboratories. Rag1^−/− and Rag2^−/−IL2rg^−/− were purchased from Taconic Biosciences. IL-5 Cre, dTomato (Red5/R5) from Dr Locksley laboratory. The IL-5 fate reporter in this work was generated by crossing Red5 with Ai3(RCL-EYFP) with IL-17A^GFP 51 and IL-22^BFP generated in Applicants laboratory. In order to maximize the Cre recombination and increase the signal of Rosa26^YFP positive cells, Applicants used homozygous IL-5^dTomato, Cre. Applicants observed little to no difference in IL-23 induced skin thicknening (FIG. 8a).
Psoriasis model. […] Skin thickness was measured daily with calipers. […]

skin ILCs [4] = experiment: Intracellular cytokine staining of skin ILCs after IL-23 treatment; format: in vivo, mouse
Text: as §3
as §2, with “sorting. […]” for “sorting.”

CCCCCCCCc1ccc(CCC(N)(CO)CO)cc1 [FTY720, reference compound]
psoriasis phenotype induction upon IL-23 administration (skin thickness) (ear skin; FTY720-treated vs untreated controls, WT or Rag1−/− mice): no difference
increased susceptibility to a secondary challenge with IL-23 (skin thickness) (ear skin; FTY720 during the primary injection): does not impact; also recorded: also observed
circulating total white blood cells [1]: blocks; also recorded: reduction

CC(C)Cn1cnc2c(N)nc3ccccc3c21 [imiquimod]
IL-22 production, compared with IL-23 injection model (skin ILCs [2]; topically treated over 10 days): less induced
IL-17A producing cells including exIL-5 cells (skin ILCs [2]; topically treated over 10 days vs untreated mice): increase

IL-23: recombinant cytokine injected subcutaneously into ear skin to induce the psoriasis model
increase in skin thickness over the treatment course (ear skin; Rag1−/− mice (intact ILCs)): significant increase
increase in ear thickness (ear skin; Rag2−/− Il2rg−/− double mutant (lacks all lymphocytes)): did not show any increase
skin thickening, treated versus untreated recipient mice (ear skin; Rag2−/− Il2rg−/− mice with adoptively transferred sorted skin ILCs): significant skin thickening
skin thickness (ear skin; WT mice, daily subcutaneous injections, vs PBS vehicle): significantly higher; also recorded: increased
time for inflammation and skin thickness to revert to near-baseline levels (ear skin; after the initial injection): ≤ 10 days
phenotype after a second series of injections compared to initial response (ear skin; second challenge): significantly more severe
IL-22- and IL-17A-expressing cells that were ex-IL-5 producing cells (skin ILCs [3]; after IL-23 injection, fate mapping of ILC2s): ~10%
number of ex-IL-5 cells producing IL-22 and IL-17A (skin ILCs [3]; second IL-23 challenge): further elevated
cells expressing IL-22 and IL-17A that also co-express IL-13 (skin ILCs [4]; Rag1−/− mice): ~20%
cells expressing IL-22 and IL-17A that also co-express IL-13 (skin ILCs [4]; WT and Tcrd−/− mice): ~10%
